Measurements: US8357717B2, “Spiro group-containing amide compounds having bradykinin 1 receptor (B1R) activity” (Gruenenthal GmbH, priority 2009, dated 2013)

Key:
[1] = biological target: T1, B1R receptor of the rat (rB1R) (Rattus norvegicus, UniProt P97583); experiment: FLIPR Ca2+ functional study on bradykinin receptor 1, rB1R cells (CHO K1); type: cell-based; settings: 10 μM test substance; CHO K1 cells with rat B1R; agonist Des-Arg9-bradykinin at EC80; read-out: B1R antagonism, rat [10 μM] % inhibition
T1 construct: expressed in transfected cells; host or cells: CHO K1 cells, stably transfected
T1 sequence (P97583 1-337): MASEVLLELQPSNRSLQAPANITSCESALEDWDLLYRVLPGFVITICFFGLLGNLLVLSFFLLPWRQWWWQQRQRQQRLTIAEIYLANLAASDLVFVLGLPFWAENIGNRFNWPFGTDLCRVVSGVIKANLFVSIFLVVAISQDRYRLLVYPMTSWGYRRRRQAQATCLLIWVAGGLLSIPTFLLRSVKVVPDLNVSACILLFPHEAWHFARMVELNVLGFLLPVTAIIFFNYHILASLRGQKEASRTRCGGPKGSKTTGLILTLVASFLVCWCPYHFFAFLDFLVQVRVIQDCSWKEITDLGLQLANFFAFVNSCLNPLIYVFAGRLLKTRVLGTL
Protocol: (§1) The agonistic or antagonistic activity of substances can be quantified on the bradykinin receptor 1 (B1R) of the species human and rat using ectopically expressing cell lines (CHO K1 cells) and with the aid of a Ca^2+-sensitive dye (Fluo-4) using a fluorescent imaging plate reader (FLIPR). The indication in % activation is based on the Ca^2+ signal after addition of Lys-Des-Arg^9-bradykinin (0.5 nM) or Des-Arg^9-bradykinin (100 nM). Antagonists lead to suppression of the Ca^2+ influx after the addition of the agonist. % Inhibition compared with the maximum achievable inhibition is indicated.
(§2) The agonistic or antagonistic activity of substances can be determined on the bradykinin receptor 1 (B1R) of the species human and rat using the following assay. According to this assay, the Ca^2+ influx through the channel is quantified with the aid of a Ca^2+-sensitive dye (Fluo-4 type, Molecular Probes Europe BV, Leiden, Netherlands) using a Fluorescent Imaging Plate Reader (FLIPR, Molecular Devices, Sunnyvale, USA).
(§3) Chinese hamster ovary cells (CHO K1 cells) which have been stably transfected with the human B1R gene (hB1R cells) or with the B1R gene of the rat (rB1R cells) are used. For functional studies, the cells are plated out on black 96-well plates having a clear base (BD Biosciences, Heidelberg, Germany or Greiner, Frickenhausen, Germany) in a density of 20,000-35,000 cells/well. The cells are left overnight at 37° C. and with 5% CO2 in culture medium (hB1R cells: Nutrient Mixture Ham's F12, Gibco Invitrogen GmbH, Karlsruhe, Germany or DMEM, Sigma-Aldrich, Taufkirchen, Germany; rB1R cells: D-MEM/F12, Gibco Invitrogen GmbH, Karlsruhe, Germany), with 10 vol. % FBS (fetal bovine serum, Gibco Invitrogen GmbH, Karlsruhe, Germany or PAN Biotech GmbH, Aidenbach, Germany). On the following day, the cells are loaded for 60 minutes at 37° C. with 2.13 μM Fluo-4 (Molecular Probes Europe BV, Leiden, Netherlands) in HBSS buffer (Hank's buffered saline solution, Gibco Invitrogen GmbH, Karlsruhe, Germany) […] (Sigma-Aldrich, Taufkirchen, Germany) and 10 mM HEPES (Sigma-Aldrich, Taufkirchen, Germany). The plates are then washed twice with HBSS buffer, and HBSS buffer additionally containing 0.1% BSA (bovine serum albumin; Sigma-Aldrich, Taufkirchen, Germany), 5.6 mM glucose and 0.05% gelatin (Merck KGaA, Darmstadt, Germany) is added to the plates. After incubation for a further 20 minutes at room temperature, the plates are inserted into the FLIPR for Ca^2+ measurement. Alternatively, washing is carried out with buffer A (15 mM HEPES, 80 mM NaCl, 5 mM KCl, 1.2 mM CaCl2, 0.7 mM MgSO4, 2 g/l glucose, 2.5 mM probenecid) followed by loading with buffer A with added 2.5 μM Fluo-4 and 0.025% Pluronic F127 (Sigma-Aldrich, Taufkirchen, Germany). The cells are then washed twice with buffer A and incubated for 30 minutes at room temperature with buffer A additionally containing 0.05% BSA and 0.05% gelatin and are then inserted into the FLIPR for Ca^2+ measurement. The Ca^2+-dependent fluorescence is measured before and after the addition of substances (λex=488 nm, λem=540 nm). Quantification is carried out by measuring the highest fluorescence intensity (FC, fluorescence counts) over time.
(§4) The FLIPR protocol consists of two substance additions. Test substances (10 μM) are first pipetted onto the cells and the Ca^2+ influx is compared with the control (hB1R: Lys-Des-Arg^9-bradykinin >=50 nM; rB1R: Des-Arg^9-bradykinin 10 μM). This gives the activation in %, based on the Ca^2+ signal after addition of Lys-Des-Arg^9-bradykinin (>=50 nM) or Des-Arg^9-bradykinin (10 μM). After 10-20 minutes' incubation, Lys-Des-Arg^9-bradykinin (hB1R) or Des-Arg^9-bradykinin (rB1R) is applied in the concentration of the EC80, and the influx of Ca^2+ is likewise determined. Antagonists lead to suppression of the Ca^2+ influx. The % inhibition compared with the maximum achievable inhibition is calculated. […]

[2] = biological target: T2, human B1R receptor (hB1R) (Homo sapiens, UniProt P46663); experiment: FLIPR Ca2+ functional study on bradykinin receptor 1, hB1R cells (CHO K1); type: cell-based; settings: CHO-K1, 10 μM test substance; CHO K1 cells with human B1R; agonist Lys-Des-Arg9-bradykinin at EC80; read-out: B1R antagonism, human [10 μM] % inhibition
T2 construct: expressed in transfected cells; host or cells: CHO K1 cells, stably transfected
T2 sequence (P46663 1-353): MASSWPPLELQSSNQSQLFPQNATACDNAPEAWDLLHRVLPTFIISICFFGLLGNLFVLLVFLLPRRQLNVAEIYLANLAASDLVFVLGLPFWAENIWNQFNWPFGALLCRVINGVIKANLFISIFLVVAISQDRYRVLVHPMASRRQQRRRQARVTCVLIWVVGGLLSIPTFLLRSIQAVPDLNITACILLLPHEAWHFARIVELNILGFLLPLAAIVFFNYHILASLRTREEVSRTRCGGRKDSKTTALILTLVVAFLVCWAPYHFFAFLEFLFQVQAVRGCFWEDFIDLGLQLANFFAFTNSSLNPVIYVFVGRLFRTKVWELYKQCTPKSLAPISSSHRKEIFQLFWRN
Protocol: as §1, §2, §3, §4

| inhibition at 10 µM [1] [%] | inhibition at 10 µM [2] [%] | Compound |
| --- | --- | --- |
| 80 | 97 | COc1cc(C)c(S(=O)(=O)N2CCCc3ccc(CC(=O)N4CCC5(CC4)CCN(C4CCC4)C5)cc32)c(C)c1 [Compound G-10, 1-(2-Cyclobutyl-2,8-diazaspiro[4.5]decan-8-yl)-2-(1-(4-methoxy-2,6-dimethylphenylsulfonyl)-1,2,3,4-tetrahydroquinolin-7-yl)ethanone] |
| 99 | 99 | COc1cc(C)c(S(=O)(=O)N2CCCc3ccc(CC(=O)N4CCC5(CCN(c6ccncc6)CC5)C4)cc32)c(C)c1 [Compound G-11, 2-(1-(4-Methoxy-2,6-dimethylphenylsulfonyl)-1,2,3,4-tetrahydroquinolin-7-yl)-1-(8-(pyridin-4-yl)-2,8-diazaspiro[4.5]decan-2-yl)ethanone] |
| 102 | 100 | COc1cc(C)c(S(=O)(=O)N2CCCc3ccc(CC(=O)N4CCC5(CCN(c6ccncc6)C5)C4)cc32)c(C)c1 (stereo not drawn) [Compound G-12, 2-(1-(4-Methoxy-2,6-dimethylphenylsulfonyl)-1,2,3,4-tetrahydroquinolin-7-yl)-1-(7-(pyridin-4-yl)-2,7-diazaspiro[4.4]nonan-2-yl)ethanone] |
| 94 | 100 | O=C(c1ccccc1Cl)N1CCc2onc(C(=O)N3CCC4(CC3)CCN(c3ccncc3)CC4)c2C1 [Compound G-13, (5-(2-Chlorobenzoyl)-4,5,6,7-tetrahydroisoxazolo[4,5-c]pyridin-3-yl)(9-(pyridin-4-yl)-3,9-diazaspiro[5.5]undecan-3-yl)methanone] |
| 97 | 97 | COc1cc(C)c(S(=O)(=O)N2CCc3sc(C(=O)N4CCC5(CC4)CCN(c4ccncc4)CC5)cc3C2)c(C)c1 [Compound G-14, (5-(4-Methoxy-2,6-dimethylphenylsulfonyl)-4,5,6,7-tetrahydrothieno[3,2-c]pyridin-2-yl)(9-(pyridin-4-yl)-3,9-diazaspiro[5.5]undecan-3-yl)methanone] |
| 81 | 66 | O=C(c1cc2c(s1)CCN(C(=O)c1ccccc1Cl)C2)N1CCC2(CC1)CCN(c1ccncc1)CC2 [Compound G-15, (5-(2-Chlorobenzoyl)-4,5,6,7-tetrahydrothieno[3,2-c]pyridin-2-yl)(9-(pyridin-4-yl)-3,9-diazaspiro[5.5]undecan-3-yl)methanone] |
| 100 | 98 | O=C(Cc1ccc2c(c1)N(S(=O)(=O)c1ccccc1C(F)(F)F)CCC2)N1CCC2(CC1)CCN(c1ccncc1)CC2 [Compound G-16, 1-(9-(Pyridin-4-yl)-3,9-diazaspiro[5.5]undecan-3-yl)-2-(1-(2-(trifluoromethyl)phenylsulfonyl)-1,2,3,4-tetrahydroquinolin-7-yl)ethanone] |
| 89 | 97 | O=C(Cc1ccc2c(c1)N(S(=O)(=O)c1cccc3ccccc13)CCC2)N1CCC2(CC1)CCN(c1ccncc1)CC2 [Compound G-17, 2-(1-(Naphthalin-1-ylsulfonyl)-1,2,3,4-tetrahydroquinolin-7-yl)-1-(9-(pyridin-4-yl)-3,9-diazaspiro[5.5]undecan-3-yl)ethanone] |
| 98 | 97 | Cc1cccc(Cl)c1S(=O)(=O)N1CCCc2ccc(CC(=O)N3CCC4(CC3)CCN(c3ccncc3)CC4)cc21 [Compound G-18, 2-(1-(2-Chloro-6-methylphenylsulfonyl)-1,2,3,4-tetrahydroquinolin-7-yl)-1-(9-(pyridin-4-yl)-3,9-diazaspiro[5.5]undecan-3-yl)ethanone] |
| 100 | 100 | COc1cc(C)c(S(=O)(=O)N2CCOc3ccc(CC(=O)N4CCC5(CC4)CCN(c4ccncc4)CC5)cc32)c(C)c1 [Compound G-19, 2-(4-(4-Methoxy-2,6-dimethylphenylsulfonyl)-3,4-dihydro-2H-benzo[b][1,4]oxazin-6-yl)-1-(9-(pyridin-4-yl)-3,9-diazaspiro[5.5]undecan-3-yl)ethanone] |
| 102 | 100 | COc1cc(C)c(S(=O)(=O)N2CCc3ccc(CC(=O)N4CCC5(CC4)CCN(c4ccncc4)CC5)cc32)c(C)c1 [Compound G-20, 2-(1-(4-Methoxy-2,6-dimethylphenylsulfonyl)indolin-6-yl)-1-(9-(pyridin-4-yl)-3,9-diazaspiro[5.5]undecan-3-yl)ethanone] |
| 101 | 95 | O=C(c1ccc2c(c1)N(C(=O)c1ccccc1Cl)CCC2)N1CCC2(CC1)CCN(c1ccncc1)CC2 [Compound G-21, (1-(2-Chlorobenzoyl)-1,2,3,4-tetrahydroquinolin-7-yl)(9-(pyridin-4-yl)-3,9-diazaspiro[5.5]undecan-3-yl)methanone] |
| 100 | 99 | COc1cc(C)c(S(=O)(=O)N2CCCc3ccc(C(=O)N4CCC5(CC4)CCN(c4ccncc4)CC5)cc32)c(C)c1 [Compound G-24, (1-(4-Methoxy-2,6-dimethylphenylsulfonyl)-1,2,3,4-tetrahydroquinolin-7-yl)(9-(pyridin-4-yl)-3,9-diazaspiro[5.5]undecan-3-yl)methanone] |
| 98 | 100 | COc1cc(C)c(S(=O)(=O)N2CCCc3ccc(CC(=O)N4CCC5(CC4)CCN(c4ccncc4)CC5)cc32)c(C)c1 [Compound G-25, 2-(1-(4-Methoxy-2,6-dimethylphenylsulfonyl)-1,2,3,4-tetrahydroquinolin-7-yl)-1-(9-(pyridin-4-yl)-3,9-diazaspiro[5.5]undecan-3-yl)ethanone] |
| 95 | 99 | COc1cc(C)c(S(=O)(=O)N2CCc3onc(C(=O)N4CCC5(CC4)CCN(c4ccncc4)CC5)c3C2)c(C)c1 [Compound G-26, (5-(4-Methoxy-2,6-dimethylphenylsulfonyl)-4,5,6,7-tetrahydroisoxazolo[4,5-c]pyridin-3-yl)(9-(pyridin-4-yl)-3,9-diazaspiro[5.5]undecan-3-yl)methanone] |
